Measured values published in patent US12629374B2, “Antimalarial agents” (Merck Sharp & Dohme LLC, priority 2020, dated 2026).

System: ring stage parasites
Assay: Parasite growth potency assay, 72 hours, LDH readout
Assay type: cell-based
Conditions: 72 h, parasite growth measured by LDH assay after 72 hours at 37° C.; 0.7% rings, 2% haematocrit; read-out: EC50
Summary of the method: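 Parasite growth was quantified by LDH assay after a −80 °C freeze-thaw. Before that, compound was incubated for 72 h at 37 °C under humidified gas with ring-stage cultures adjusted to 0.7% parasitemia and 2% haematocrit in serum- and albumax-supplemented RPMI-Hepes.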

SMILES	EC50 [nM]
CCC1(CC)CC(=O)N([C@@H](c2cncc(F)c2)c2cccc(C(=O)N[C@H]3CCOc4ccccc43)c2)C(=N)N1 [Example 106B, [1-[[3-[[(4S)-chroman-4-yl]carbamoyl]phenyl]-(5-fluoropyridin-1-ium-3-yl)methyl]-4,4-diethyl-6-oxo-hexahydropyrimidin-2-ylidene]ammonium; 2,2,2-trifluoroacetate]	3.1
CCC1(CC)CC(=O)N([C@H](CCC#N)c2cccc(C(=O)N[C@H]3CC(C)(C)Oc4ccccc43)c2)C(=N)N1 [Example 107, [1-[3-cyano-1-[3-[[(4S)-2,2-dimethylchroman-4-yl]carbamoyl]phenyl]propyl]-4,4-diethyl-6-oxo-hexahydropyrimidin-2-ylidene]ammonium; 2,2,2-trifluoroacetate]	0.2
C#CCC[C@H](c1cccc(C(=O)N[C@H]2CC(C)(C)Oc3ccccc32)c1)N1C(=N)N[C@](C)(C(C)C)CC1=O [Example 108A, [(4S)-1-[1-[3-[[(4S)-2,2-dimethylchroman-4-yl]carbamoyl]phenyl]pent-4-ynyl]-4-isopropyl-4-methyl-6-oxo-hexahydropyrimidin-2-ylidene]ammonium; 2,2,2-trifluoroacetate]	0.4
C#CCC[C@@H](c1cccc(C(=O)N[C@H]2CC(C)(C)Oc3ccccc32)c1)N1C(=N)N[C@](C)(C(C)C)CC1=O [Example 108B, [(4S)-1-[1-[3-[[(4S)-2,2-dimethylchroman-4-yl]carbamoyl]phenyl]pent-4-ynyl]-4-isopropyl-4-methyl-6-oxo-hexahydropyrimidin-2-ylidene]ammonium; 2,2,2-trifluoroacetate]	23.6
CCC1(CC)CC(=O)N([C@H](c2cccnc2)c2cccc(C(=O)N[C@@H]3c4ccccc4C[C@H]3O)c2)C(=N)N1 [Example 109A, [4,4-diethyl-1-[[3-[[(1R,2R)-2-hydroxyindan-1-yl]carbamoyl]phenyl]-pyridin-1-ium-3-yl-methyl]-6-oxo-hexahydropyrimidin-2-ylidene]ammonium; 2,2,2-trifluoroacetate]	1.6
CCC1(CC)CC(=O)N([C@@H](c2cccnc2)c2cccc(C(=O)N[C@@H]3c4ccccc4C[C@H]3O)c2)C(=N)N1 [Example 109B, [4,4-diethyl-1-[[3-[[(1R,2R)-2-hydroxyindan-1-yl]carbamoyl]phenyl]-pyridin-1-ium-3-yl-methyl]-6-oxo-hexahydropyrimidin-2-ylidene]ammonium; 2,2,2-trifluoroacetate]	22.9
CCC1(CC)CC(=O)N([C@H](c2cncnc2)c2cccc(C(=O)N[C@@H]3c4ccccc4C[C@H]3O)c2)C(=N)N1 [Example 110B, 3-[(4,4-diethyl-2-imino-6-oxo-hexahydropyrimidin-1-yl)-pyrimidin-5-yl-methyl]-N-[(1R,2R)-2-hydroxyindan-1-yl]benzamide]	8.3
CC#CCC[C@H](c1cncc(C(=O)N[C@H]2CC(C)(C)Oc3ccccc32)c1)N1C(=N)NC(CC)(CC)CC1=O [Example 111, [1-[1-[5-[[(4S)-2,2-dimethylchroman-4-yl]carbamoyl]pyridin-1-ium-3-yl]hex-4-ynyl]-4,4-diethyl-6-oxo-hexahydropyrimidin-2-ylidene]ammonium; 2,2,2-trifluoroacetate]	0.4
CCC1(CC)CC(=O)N([C@H](COCCOC)c2cccc(C(=O)N[C@H]3CC(C)(C)Oc4ccccc43)c2)C(=N)N1 [Example 112A, [1-[1-[3-[[(4S)-2,2-dimethylchroman-4-6-oxo-hexahydropyrimidin-2-ylidene]ammonium; 2,2,2-trifluoroacetate]	0.3
CCC1(CC)CC(=O)N(Cc2cccc(C(=O)NC3(C)CCOc4ccccc43)c2)C(=N)N1 (stereo not shown) [Example 113, 3-[(4,4-diethyl-2-imino-6-oxo-hexahydropyrimidin-1-yl)methyl]-N-(4-methylchroman-4-yl)benzamide]	96.1
C#CCC[C@H](c1cncc(C(=O)N[C@H]2CC(C)(C)Oc3ccccc32)c1)N1C(=N)N[C@](C)(C(C)C)CC1=O [Example 114A, [(4S)-1-[1-[5-[[(4S)-2,2-dimethylchroman-4-yl]carbamoyl]pyridin-1-ium-3-yl]pent-4-ynyl]-4-isopropyl-4-methyl-6-oxo-hexahydropyrimidin-2-ylidene]ammonium; 2,2,2-trifluoroacetate]	0.3
C#CCC[C@@H](c1cncc(C(=O)N[C@H]2CC(C)(C)Oc3ccccc32)c1)N1C(=N)N[C@](C)(C(C)C)CC1=O [Example 114B, [(4S)-1-[1-[5-[[(4S)-2,2-dimethylchroman-4-yl]carbamoyl]pyridin-1-ium-3-yl]pent-4-ynyl]-4-isopropyl-4-methyl-6-oxo-hexahydropyrimidin-2-ylidene]ammonium; 2,2,2-trifluoroacetate]	18.4
CCC1(CC)CC(=O)N([C@H](c2ccc(S(C)(=O)=O)cc2)c2cccc(C(=O)N[C@H]3CC(C)(C)Oc4ccccc43)c2)C(=N)N1 [Example 115A, [1-[[3-[[(4S)-2,2-dimethylchroman-4-yl]carbamoyl]phenyl]-(4-methylsulfonylphenyl)methyl]-4,4-diethyl-6-oxo-hexahydropyrimidin-2-ylidene]ammonium; 2,2,2-trifluoroacetate]	1
CCC1(CC)CC(=O)N([C@@H](c2ccc(S(C)(=O)=O)cc2)c2cccc(C(=O)N[C@H]3CC(C)(C)Oc4ccccc43)c2)C(=N)N1 [Example 115B, [1-[[3-[[(4S)-2,2-dimethylchroman-4-yl]carbamoyl]phenyl]-(4-methylsulfonylphenyl)methyl]-4,4-diethyl-6-oxo-hexahydropyrimidin-2-ylidene]ammonium; 2,2,2-trifluoroacetate]	4.4
CCC1(CC)CC(=O)N([C@H](c2ccc(S(C)(=O)=O)cc2)c2cccc(C(=O)N[C@@H]3c4ccccc4C[C@H]3O)c2)C(=N)N1 [Example 116, [4,4-diethyl-1-[[3-[[(1R,2R)-2-hydroxyindan-1-yl]carbamoyl]phenyl]-(4-methylsulfonylphenyl)methyl]-6-oxo-hexahydropyrimidin-2-ylidene]ammonium; chloride]	6.8
CCC12CCCCCCCC3CC(NC(=O)c4cccc(c4)CN(C(=N)N1)C(=O)C2)c1ccccc1O3 (stereo not shown) [Example 118, (26-ethyl-8,29-dioxo-17-oxa-1,9,27-triazapentacyclo[24.2.2.13,7.110,18. 011,16]dotriaconta-3,5,7(32),11(16),12,14-hexaen-28-ylidene)ammonium; 2,2,2-trifluoroacetate]	56.5
CCC[C@H](c1cccc(C(=O)N[C@@H]2c3ccccc3OC(C)(C)[C@H]2O)c1)N1C(=N)NC(CC)(CC)CC1=O [Example 119A, [4,4-diethyl-1-[(1R)-1-[3-[(3-hydroxy-2,2-dimethyl-chroman-4-yl)carbamoyl]phenyl]butyl]-6-oxo-hexahydropyrimidin-2-ylidene]ammonium; 2,2,2-trifluoroacetate]	0.5
CCC[C@H](c1cccc(C(=O)N[C@H]2c3ccccc3OC(C)(C)[C@@H]2O)c1)N1C(=N)NC(CC)(CC)CC1=O [Example 119B, [4,4-diethyl-1-[(1R)-1-[3-[(3-hydroxy-2,2-dimethyl-chroman-4-yl)carbamoyl]phenyl]butyl]-6-oxo-hexahydropyrimidin-2-ylidene]ammonium; 2,2,2-trifluoroacetate]	34
CCC[C@H](c1cccc(C(=O)N[C@@H]2c3ccccc3CC2(C)O)c1)N1C(=N)NC(CC)(CC)CC1=O (stereo partly drawn) [Example 122A, 3-[(1R)-1-(4,4-diethyl-2-imino-6-oxo-hexahydropyrimidin-1-yl)butyl]-N-(2-hydroxy-2-methyl-indan-1-yl)benzamide]	1.2
CCC1(CC)CC(=O)N([C@@H](c2cccc(C(=O)N[C@H]3CCOc4ccccc43)c2)c2cccc(S(C)(=O)=O)c2)C(=N)N1 [Example 123A, [1-[[3-[[(4S)-chroman-4-yl]carbamoyl]phenyl]-(3-methylsulfonylphenyl)methyl]-4,4-diethyl-6-oxo-hexahydropyrimidin-2-ylidene]ammonium; 2,2,2-trifluoroacetate]	1.9
CCC1(CC)CC(=O)N([C@H](c2cccc(C(=O)N[C@H]3CCOc4ccccc43)c2)c2cccc(S(C)(=O)=O)c2)C(=N)N1 [Example 123B, [1-[[3-[[(4S)-chroman-4-yl]carbamoyl]phenyl]-(3-methylsulfonylphenyl)methyl]-4,4-diethyl-6-oxo-hexahydropyrimidin-2-ylidene]ammonium; 2,2,2-trifluoroacetate]	9.3
CCC1(CC)CC(=O)N([C@@H](c2cccc(C(=O)N[C@@H]3c4ccccc4C[C@H]3O)c2)c2cccc(S(C)(=O)=O)c2)C(=N)N1 [Example 124A, [4,4-diethyl-1-[[3-[[(1R,2R)-2-hydroxyindan-1-yl]carbamoyl]phenyl]-(3-methylsulfonylphenyl)methyl]-6-oxo-hexahydropyrimidin-2-ylidene]ammonium; 2,2,2-trifluoroacetate]	9.9
CCC1(CC)CC(=O)N([C@H](c2cccc(C(=O)N[C@@H]3c4ccccc4C[C@H]3O)c2)c2cccc(S(C)(=O)=O)c2)C(=N)N1 [Example 124B, [4,4-diethyl-1-[[3-[[(1R,2R)-2-hydroxyindan-1-yl]carbamoyl]phenyl]-(3-methylsulfonylphenyl)methyl]-6-oxo-hexahydropyrimidin-2-ylidene]ammonium; 2,2,2-trifluoroacetate]	53

Same assay, conditions: parasite growth measured by LDH assay after 72 hours at 37° C.; 0.7% rings, 2% haematocrit; read-out: EC50

SMILES	EC50 [nM]
CCC1(CC)CC(=O)N(C(c2cncnc2)c2cccc(C(=O)N[C@@H]3c4ccccc4C[C@H]3O)c2)C(=N)N1 (stereo partly drawn) [Example 110A, 3-[(4,4,-diethyl-2-imino-6-oxo-hexahydropyrimidin-1-yl)-pyrimidin-5-yl-methyl]-N-[(1R,2R)-2-hydroxyindan-1-yl]benzamide]	4
CCC[C@H](c1cccc(C(=O)N[C@@H]2c3ccccc3CC2(C)O)c1)N1C(=N)NC(CC)(CC)CC1=O (stereo partly drawn) [Example 122D, 3-[(1R)-1-(4,4-diethyl-2-imino-6-oxo-hexahydropyrimidin-1-yl)butyl]-N-(2-hydroxy-2-methyl-indan-1-yl)benzamide]	0.6
